Data on 20 compounds can be found in patent publication US8222240B2, “Use of substituted cyclopropane acid derivatives for producing drugs for use in the treatment of metabolic syndrome” (Sanofi-Aventis Deutschland GmbH, priority 2004, dated 2012).

The structures appear in SMILES notation.

The target in assay [1] is T1, GPCR HM74A (niacin receptor) (Homo sapiens, UniProt Q8TDS4).
T1 construct: expressed in transfected cells; host or cells: HEK293
As to the kind of experiment: FLIPR in vitro functional assay, intracellular Ca2+ in recombinant HEK293 cells expressing HM74A and hybrid G-protein. Format: cell-based. Conditions: relative to 1 μM niacin = 100%. As for the experimental part:
in vitro functional assays with recombinant cells; function-testing assays were carried out by means of the FLIPR technique (“Fluorescence Imaging Plate Reader”, Molecular Devices Corp.).
For the investigations, cells were seeded into 96-well microtiter plates (60 000 cells/well) and allowed to grow over night. The medium was removed and the cells were incubated in buffer which contained the fluorescent dye Fluo-4. After this loading with dye, the cells were washed, test substance was added, and changes in the intracellular Ca^2+ concentration were measured in the FLIPR apparatus.

For a further assay, the system named is lipolysis. As to the kind of experiment: Inhibition of lipolysis on the whole animal (plasma FFA, glycerol, triglycerides after p.o. administration). The assay is classed as in vivo, Wistar rats. Also noted: FFA / Glycerol / Triglyceride: unit not given here. Conditions: for FFA / Glycerol / Triglyceride: 3 mg/kg po, Wistar rats. As for the experimental part:
The effect was tested on the whole animal (mouse, rat, hamster or dog), after a fasting period (e.g. of about 16 hours the substance is administered (e.g. p.o., iv., i.p., s.c.) and, with or without additional stimulation of endogenous lipolysis (e.g. by a bolus injection of 2 mg/kg i.p. isoprenaline), the effect of the test substance on lipolysis was determined on the basis of the liberated free fatty acids (FFA), glycerol and triglycerides by obtaining a blood sample (e.g. by retroorbital blood sampling) e.g. 15 min, 30, 60, 120 etc minutes after p.o. administration, and analyzing by standard methods of clinical chemistry (e.g. L. Thomas: Labor und Diagnose, 2nd edition, Medizinische Verlagsgesellschaft, Marburg/L. 1984; ISBN 3-921320-10-9)). The inhibition of lipolysis by the inhibitors is analyzed by comparing with the rate of lipolysis in correspondingly treated control animals.

A word on the EC50: it is the concentration that produces a half-maximal response.

T1 sequence (Q8TDS4 whole entry): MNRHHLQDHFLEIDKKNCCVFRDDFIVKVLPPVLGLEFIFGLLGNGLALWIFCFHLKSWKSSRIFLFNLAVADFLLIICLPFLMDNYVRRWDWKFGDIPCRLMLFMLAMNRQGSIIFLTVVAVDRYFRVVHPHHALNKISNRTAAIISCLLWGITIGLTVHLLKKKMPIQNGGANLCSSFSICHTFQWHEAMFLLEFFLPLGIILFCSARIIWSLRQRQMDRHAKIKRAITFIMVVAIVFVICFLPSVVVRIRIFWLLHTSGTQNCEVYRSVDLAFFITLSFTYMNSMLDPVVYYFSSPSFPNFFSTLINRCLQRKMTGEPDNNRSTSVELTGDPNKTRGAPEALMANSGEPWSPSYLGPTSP

Consider `COC(=O)[C@@H]1C[C@H]1C(=O)O` (racemic) [Example 7, 1RS-Methoxycarbonyl-2RS-hydroxycarbonyl-cyclopropane], for which the EC50 in assay [1] was found to be 630 nM.

Consider `COC(=O)[C@H]1[C@H](C(=O)O)C1(C)C` (racemic) [Example 9, 1RS-Methoxycarbonyl-2RS-hydroxycarbonyl-3,3-dimethyl-cyclopropane], for which the EC50 in assay [1] is over 30000 nM.

In the case of `CCOC(=O)[C@@H]1C[C@H]1C(=O)O` (racemic) [Example 10, 1RS-Ethoxycarbonyl-2RS-hydroxycarbonyl-cyclopropane], in assay [1], the EC50 amounted to 1480 nM.

Consider `CCCOC(=O)[C@@H]1C[C@H]1C(=O)O` (racemic) [Example 11, 1RS-Propoxycarbonyl-2RS-hydroxycarbonyl-cyclopropane], for which, in assay [1], the EC50 was determined as 2160 nM.

`CCCCOC(=O)[C@@H]1C[C@H]1C(=O)O` (racemic) [Example 12, 1RS-Butoxycarbonyl-2RS-hydroxycarbonyl-cyclopropane]: the EC50 in assay [1] stood at 670 nM.

Turning to `CCCCCOC(=O)[C@@H]1C[C@H]1C(=O)O` (racemic) [Example 13, 1RS-Pentoxycarbonyl-2RS-hydroxycarbonyl-cyclopropane], the EC50 in assay [1] was 1610 nM.

As for `CC(C)OC(=O)[C@@H]1C[C@H]1C(=O)O` (racemic) [Example 14, 1RS-iso-Propoxycarbonyl-2RS-hydroxycarbonyl-cyclopropane], the EC50 in assay [1] is over 30000 nM.

Regarding `O=C(O)[C@@H]1C[C@H]1C(=O)OCC1CCCCC1` (racemic) [Example 15, 1RS-Cyclohexyl-methyloxycarbonyl-2RS-hydroxycarbonyl-cyclopropane], the EC50 in assay [1] was over 30000 nM.

In the case of `CC(C)COC(=O)[C@@H]1C[C@H]1C(=O)O` (racemic) [Example 16, 1RS-isobutoxycarbonyl-2RS-hydroxycarbonyl-cyclopropane], the EC50 in assay [1] was over 30000 nM.

`C=CCOC(=O)[C@@H]1C[C@H]1C(=O)O` (racemic) [Example 17, 1RS-allyloxycarbonyl-2RS-hydroxycarbonyl-cyclopropane]: the concentration giving a half-maximal response (EC50) in assay [1] came to 2830 nM.

For the compound `C#CCOC(=O)[C@@H]1C[C@H]1C(=O)O` (racemic) [Example 18, 1RS-Propargyloxycarbonyl-2RS-hydroxycarbonyl-cyclopropane], in assay [1], the EC50 came to 1510 nM.

In the case of `CC#CCOC(=O)[C@@H]1C[C@H]1C(=O)O` (racemic) [Example 19, 1RS-Butinyloxycarbonyl-2RS-hydroxycarbonyl-cyclopropane], the EC50 in assay [1] was 1630 nM.

Consider `CC(C)(C)OC(=O)[C@H]1[C@H](C(=O)O)C1(C)C` (racemic) [Example 20, 1RS-tertButoxycarbonyl-2RS-hydroxycarbonyl-3,3-dimethyl-cyclopropane], for which the EC50 in assay [1] was over 30000 nM.

Regarding `COC(=O)[C@H]1C[C@@H]1C(=O)OC` (relative stereo) [Example 5, Dimethyl trans-1,2-cyclopropanedicarboxylate], the FFA with lipolysis (Time 0) turned out to be 0.47; with lipolysis (Time 15), 0.17; in the assay on lipolysis (Time 30) it was 0.13; with lipolysis (Time 60) it was 0.11; with lipolysis (Time 120) it was 0.25. The Glycerol with lipolysis (Time 0) worked out at 87; in the assay on lipolysis (Time 15), 39; in the assay on lipolysis (Time 30) it was 33; in the assay on lipolysis (Time 60), 28; in the assay with lipolysis (Time 120) it was 57. Besides, the Triglyceride is given as 0.45 with lipolysis (Time 0); 0.45 in the assay with lipolysis (Time 15); 0.26 in the assay with lipolysis (Time 30); 0.15 in the assay on lipolysis (Time 60); 0.13 with lipolysis (Time 120). Besides, the “lipolysis (reduction in free fatty acids (FFA), glycerol and triglycerides)” value in the assay on lipolysis (doses of from 0.3 to 30 mg/kg po) was “distinctly reduced”. For the same compound, the EC50 in assay [1] is over 30000 nM.

For the compound `COC(=O)[C@H]1C[C@]1(C)C(=O)OC` (relative stereo) [Example 6, Dimethyl 1-methyl-trans-cyclopropane-1,2-dicarboxylate], the EC50 in assay [1] is over 30000 nM.

For the compound `CCOC(=O)[C@@H]1C[C@H]1C(=O)OCC` (relative stereo) [Example 8, Diethyl trans-1,2-cyclopropanedicarboxylate], the EC50 in assay [1] is over 30000 nM.

As to `COC(=O)[C@@H]1C[C@H]1C(=O)O` [Example 1, 1R-Methoxycarbonyl-2R-hydroxycarbonyl-cyclopropane], the EC50 in assay [1] turned out to be 70 nM.

For `COC(=O)[C@@H]1C[C@H]1C(=O)O` [Example 2, 1R-Methoxycarbonyl-2R-hydroxycarbonyl-cyclopropane], the EC50 in assay [1] is 130 nM.

On to `COC(=O)[C@@H]1C[C@H]1C(=O)O` [Example 3, 1R-Methoxycarbonyl-2R-hydroxycarbonyl-cyclopropane], for which the EC50 in assay [1] was 190 nM.

For `COC(=O)[C@H]1C[C@H]1C(=O)OC` [Example 4, Dimethyl cis-1,2-cyclopropanedicarboxylate], in assay [1], the EC50 is over 30000 nM.
